Where two headings read alike, the source gives them in different places. Square brackets hold non-standard residues; d marks the D form. HCAP = (1S,2R)-(+)-2-hydroxy-3-cyclohexylisopropylamine linker; dAc‑VIN = 4-des-acetylvinblastine; Chg = N[C@H](C(=O)O)C1CCCCC1; Abu = CC[C@H](N)C(=O)O; VIN = not defined here; GABA = NCCCC(=O)O
Legend:
[1] = system: Colo320DM cells (also designated C320); test: In vitro cytotoxicity, Alamar Blue assay, Colo320DM cells; type: cell-based; settings: Table 5, value in parentheses, acetate salt unless otherwise indicated, read-out: Cell Kill in 72 HRS EC5O, Colo320DM
Protocol: (§1) The cytotoxicities of the vinca alkaloid derivatives, prepared as described in Example 1, and the cleaveable oligopeptide-vinca drug conjugates, prepared as described in Examples 2 and 2A, against a line of cells which is known to be killed by unmodified vinca drug was assessed with an Alamar Blue assay. Specifically, cell cultures of LNCap prostate tumor cells, Colo320DM cells (also designated C320), T24 bladder carcinoma cells or T47D breast carcinoma cells in 96 well plates was diluted with medium containing various concentrations of a given conjugate (final plate well volume of 200 μl). The cells were incubated for 3 days at 37° C., 20 μl of Alamar Blue is added to the assay well. The cells were further incubated and the assay plates were read on a EL-310 ELISA reader at the dual wavelengths of 570 and 600 nm at 4 and 7 hours after addition of Alamar Blue. Relative percentage viability at the various concentration of conjugate tested was then calculated versus control (no cytotoxic agent or conjugate) cultures. Unless otherwise indicated, the TFA salt of the cytotoxic agent and the acetate salt of the conjugate were tested.

[2] = molecular target: T1, enzymatically active free PSA (Homo sapiens, UniProt P07288); test: Recognition/cleavage of oligopeptide-vinca drug conjugates by free PSA (HPLC); type: biochemical; settings: pH 7.4; for Time to 50% Substrate Cleavage by York PSA: conjugate:PSA molar ratio 100 to 1, acetate salt unless otherwise indicated, n > 1 value is an average
T1 construct: 50% cleavage of the noted oligopeptide-cytotoxic agent conjugates with enzymatically active free PSA; purchased York
Protocol: The conjugates prepared as described in Example 3 were individually dissolved in PSA digestion buffer (50 mM tris(hydroxymethyl)-aminomethane pH7.4, 140 mM NaCl) and the solution added to PSA at a molar ration of 100 to 1. Alternatively, the PSA digestion buffer utilized is 50 mM tris(hydroxymethyl)-aminomethane pH7.4, 140 mM NaCl. The reaction is quenched after various reaction times by the addition of trifluoroacetic acid (TFA) to a final 1% (volume/volume). Alternatively the reaction is quenched with 10 mM ZnCl2. The quenched reaction was analyzed by HPLC on a reversed-phase C18 column using an aqueous 0.1% TFA/acetonitrile gradient. […] Unless otherwise indicated, the acetate salt of the conjugate was tested.

[3] = system: LNCap prostate tumor cells; test: In vitro cytotoxicity, Alamar Blue assay, LNCaP cell kill in 72 hrs; type: cell-based; settings: read-out: LNCaP Cell Kill in 72 HRS EC5O
Protocol: as §1

[4] = Lability in mouse serum (remark in Table 5); type: in vitro ADME; settings: remark in the Table 5 cell
[5] = system: T24 bladder carcinoma cells; test: In vitro cytotoxicity, Alamar Blue assay, T24 cells; type: cell-based; settings: read-out: Cell Kill in 72 HRS EC5O, T24
Protocol: as §1

[6] = Table 5, 3 days, acetate salt of conjugate unless otherwise indicated

T1 sequence (P07288 25-261): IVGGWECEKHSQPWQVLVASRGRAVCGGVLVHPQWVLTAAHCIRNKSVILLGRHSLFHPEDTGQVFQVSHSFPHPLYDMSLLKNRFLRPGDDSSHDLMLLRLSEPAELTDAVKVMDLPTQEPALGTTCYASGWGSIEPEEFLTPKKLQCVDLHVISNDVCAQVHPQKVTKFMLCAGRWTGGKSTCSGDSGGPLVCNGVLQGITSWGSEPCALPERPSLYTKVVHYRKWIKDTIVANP

Molecule: Ac-AbuSSChgQ-S-(HCAP)-VIN (Ac-[Abu]SS[Chg]QS-{HCAP-VIN}; reading uncertain)
- EC50 [1]: 7.8 µM
- Substrate cleavage by York PSA at 1 HOUR ([2]; 1 hour, conjugate:PSA 100 to 1): 28%
- EC50 [3, 6]: 6.1 µM

Molecule: Ac-SSChgQ-SSP-(HCAP)-dAc-VIN (XSXQSSX; not fully specified; non-natural residues; cyclised or stapled)
- EC50 [1]: 6.3 µM
- Time to 50% Substrate Cleavage by York PSA [2]: 8 min
- EC50 [3, 6]: 2.6 µM

Molecule: Ac-SChgQSS(HCAP)-dAc-VIN (Ac-S[Chg]QSS-{HCAP-dAc‑VIN})
- EC50 [1]: 1.4 µM
- Time to 50% Substrate Cleavage by York PSA [2]: 12 min
- EC50 [3, 6]: 1.4 µM

Molecule: Ac-4-trans-L-HypSSChgQSP(HCAP)-VIN (XSSXQSX; non-natural residues; cyclised or stapled)
- EC50 [1]: 15.6 µM
- Time to 50% Substrate Cleavage by York PSA [2]: 8 min
- EC50 [3, 6]: 5.5 µM

Molecule: Ac-SChgQS-Abu-(HCAP)-VIN (Ac-S[Chg]QS[Abu]-{HCAP-VIN}; reading uncertain)
- EC50 [1]: 2 µM
- Time to 50% Substrate Cleavage by York PSA [2]: 60 min
- EC50 [3, 6]: 0.8 µM

Molecule: Ac-AbuSSChgQ-SP-(HCAP)-(dAc)-VIN (XSSXQSP; non-natural residues; cyclised or stapled)
- EC50 [1]: 15.7 µM
- Time to 50% Substrate Cleavage by York PSA [2]: 18 min
- EC50 [3, 6]: 2 µM

Molecule: Ac-SSChgQ-SP-(HCAP)-(dAc)-VIN (Ac-SS[Chg]QSP-{HCAP-dAc‑VIN}; not fully specified)
- EC50 [1]: 29.5 µM
- Time to 50% Substrate Cleavage by York PSA [2]: 30 min
- EC50 [3, 6]: 10.2 µM

Molecule: Ac-SChgQ-SS(4-trans-L-Hyp)-(HCAP)-dAc-VIN (XXQSSX; non-natural residues; cyclised or stapled)
- EC50 [1]: 10.4 µM
- Time to 50% Substrate Cleavage by York PSA [2]: 7 min
- EC50 [3, 6]: 5.9 µM

Molecule: Ac-SChgQ-SP-(HCAP)-(dAc)-VIN (Ac-S[Chg]QSP-{HCAP-dAc‑VIN})
- EC50 [1]: 15.7 µM
- Time to 50% Substrate Cleavage by York PSA [2]: 13 min
- EC50 [3, 6]: 7.8 µM

Molecule: Ac-4-trans-L-HypSSChgQS-cyclopropylalaninol-(dAc)-VIN
- EC50 [1]: 7.5 µM
- Time to 50% Substrate Cleavage by York PSA [2]: 45 min
- EC50 [3, 6]: 1.5 µM

Molecule: Ac-SChgQSS-Sar-(HCAP)-dAc-VIN (XXQSSX; not fully specified; N-methyl; non-natural residues; cyclised or stapled)
- Time to 50% Substrate Cleavage by York PSA [2]: 13 min

Molecule: Ac-SChgQSS-gammaAbu-(HCAP)-dAc-VIN (Ac-S[Chg]QSS[GABA]-{HCAP-dAc‑VIN}; not fully specified)
- EC50 [1]: 4.3 µM
- Time to 50% Substrate Cleavage by York PSA [2]: 12 min
- EC50 [3, 6]: 2.3 µM

Molecule: Ac-4-trans-L-HypSSChgQS-cyclohexylalaninol-(dAc)-VIN (XSSXQSX; non-natural residues; cyclised or stapled)
- EC50 [1]: 2.6 µM
- Time to 50% Substrate Cleavage by York PSA [2]: 10 min
- EC50 [3, 6]: 0.3 µM

Molecule: CC[C@]1(O)CC2CN(CCc3c([nH]c4ccccc34)[C@@](C(=O)OC)(c3cc4c(cc3OC)N(C)C3C45CCN4CC=C[C@](CC)(C45)[C@@H](O)[C@]3(O)C(=O)N[C@H](COC(=O)[C@H](CO)NC(=O)[C@H](CCC(N)=O)NC(=O)[C@@H](NC(=O)[C@H](CO)NC(=O)[C@H](CO)NC(=O)[C@@H]3C[C@@H](O)CN3C(C)=O)C3CCCCC3)Cc3ccccc3)C2)C1 (stereo partly shown)
- Stability in mouse serum [4]: labile
- Time to 50% Substrate Cleavage by York PSA [2]: 25 min

Molecule: Ac-AbuSChgQ-SP-(HCAP)-(dAc)-VIN
- EC50 [1]: 15.7 µM
- Time to 50% Substrate Cleavage by York PSA [2]: 17 (n = 2) Min
- EC50 [3, 6]: 4.1 µM

Molecule: Ac-SChgQSS(PIP)-(HCAP)-dAc-VIN (XXQSSX; non-natural residues; cyclised or stapled)
- Time to 50% Substrate Cleavage by York PSA [2]: 22 min

Molecule: 4-des-Acetylvinblastine-23-(N-hydroxyacetyl-Abu-Ser-Ser-Chg-Gln-Ser-Pro-HCAP) amide (XSSXQSP; non-natural residues; cyclised or stapled)
- EC50 [1]: 12.6 µM
- Time to 50% Substrate Cleavage by York PSA [2]: 11 min
- EC50 [3, 6]: 2 µM

Molecule: Ac-4-trans-L-Hyp-SSChgQ-SS-(HCAP)-(dAc)-VIN (XSSXQSS; non-natural residues; cyclised or stapled)
- EC50 [1]: 5 µM
- Time to 50% Substrate Cleavage by York PSA [2]: 17 min
- EC50 [3, 6]: 2 µM

Molecule: 4-des-Acetylvinblastine-23-(N-Acetyl-4-trans-L-Hyp-Ser-Ser-Chg-Gln-Ser-HCAP) Amide Acetate Salt
- EC50 [1]: 4.6 µM
- Time to 50% Substrate Cleavage by York PSA [2]: 15 min
- EC50 [3, 6]: 3.4 µM

Molecule: CC[C@]1(O)C[C@@H]2CN(CCc3c([nH]c4ccccc34)[C@@](C(=O)OC)(c3cc4c(cc3OC)N(C)[C@H]3[C@@](O)(C(=O)OC)[C@H](OC(C)=O)[C@]5(CC)C=CCN6CC[C@]43[C@@H]65)C2)C1 [VINBLASTINE, vinblastine]
- EC50 ([3]; Homo sapiens, 72 h, Table 3, 3 days, TFA salt of cytotoxic agent unless otherwise indicated): 0.5 µM
- EC50 ([5]; Homo sapiens, T-24, 72 h, Table 3, value in parentheses): < 0.08 µM
- EC50 ([5]; Table 5, value in parentheses): < 0.08 µM

Molecule: 4-des-Acetylvinblastine-23-(N-Acetyl-Ser-Chg-Gln-Ser-Ser-Pro-HCAP) Amide Acetate Salt (SXQSSX; non-natural residues; cyclised or stapled) [Ac-SChgQ-SSP-(HCAP)-VIN]
- EC50 [1]: 15.7 µM
- Time to 50% Substrate Cleavage by York PSA [2]: 8 min
- EC50 [3, 6]: 7.8 µM
